From PMC4792926, “G9a-mediated methylation of ERα links the PHF20/MOF histone acetyltransferase complex to hormonal gene expression” (Nature Communications, 2016)

Assays:
G9a [1] = experiment: In vitro methylation of ERα peptides by G9a, mass spectrometry; format: biochemical, human; conditions: 1 μg peptide, pH 8.0, 30 °C, 4 h
PHF20 Tudor = experiment: 1H,15N HSQC NMR titration of PHF20 Tudor; format: binding, human; conditions: 0.2 mM 15N-labelled PHF20 Tudor, 25 mM Tris-HCl pH 7.5, 150 mM NaCl, 298 K, 600 MHz
Description: (§1) The pGEX constructs encoding human G9a, ERα and ERα fragments including AF1 (aa 1–190), DBD (aa 175–250), hinge (aa 251–310), DBD+hinge (aa 175–310), LBD (aa 305–596) and the second Tudor domain of PHF20 (aa 58–148) were expressed in E. coli Rosetta (DE3) pLysS cells. After induction with IPTG (0.5 mM) for 16–18 h at 18 °C, cells were collected by centrifugation at 5,000g, lysed by sonication and purified using Glutathione Sepharose 4B beads (GE Healthcare). For the NMR titration assays, PHF20 Tudor was expressed in the ^15NH4Cl-supplemented (Sigma) minimal media, and the GST tag was cleaved with PreScission protease, and the cleaved protein was concentrated using Millipore concentrators (Millipore).
The ^1H,^15N HSQC spectra of 0.2 mM uniformly ^15N-labelled PHF20 Tudor (in 25 mM Tris-HCl, pH 7.5 buffer, 150 mM NaCl, 5 mM dithiothreitol and ∼8% D2O) were collected at 298 K on a Varian INOVA 600 MHz spectrometer. Binding was monitored by titrating unmodified ERα and ERαK235me2 peptides (aa 228–239) against the PHF20 Tudor domain. NMR data were processed and analysed with NMRPipe and NMRDraw as previously described. NMR assignments for PHF20 Tudor were taken from the Biological Magnetic Resonance Data Bank (BMRB 17673)[31].

G9a [2] = experiment: In vitro methylation of ERα protein fragments by G9a; format: biochemical, human; conditions: 2 μg G9a, 2 μg substrate, 3H-S-adenosylmethionine, pH 8.0, 30 °C, 4 h; autoradiography
Source text: Complementary DNA encoding full-length human ERα, G9a, PHF20 and NCOA2 genes were cloned into pENTR3C and subsequently cloned into destination vectors using the Gateway technique (Invitrogen). The destination vectors used in this study include p3Flag and pCAG-Flag (for Flag-tag expression), pCAG-Myc (for Myc-tag expression) and pCAG (for no-tag expression). pERE-Luc Firefly luciferase and pRl-TK Renilla luciferase were used for the reporter assays. For in vitro enzymatic assays, G9a, ERα, ERα fragments and mutants were cloned into pGEX-6P1 (GE Healthcare) to express and purify the proteins as GST-tagged proteins. Point mutations were generated using site-directed mutagenesis (Stratagene). shRNA constructs were purchased from Sigma. The G9a-targeting shRNA sequences used in this study were 5′-[…]-3′, 5′-[…]-3′ and 5′-[…]-3′ and the PHF20-targeting shRNA sequences were 5′-[…]-3′ and 5′-[…]-3′. Peptides were synthesized at the W.M. Keck Facility at Yale University or at CPC-Scientific. Polyclonal anti-dimethylated ERαK235 rabbit sera (CPC Scientific, 1:500) were affinity-purified with an ERαK235me2 peptide and depleted against the corresponding unmethylated peptide. Anti-G9a antibodies were purchased from MBL (D141-3, 1:1,000) and Sigma (G6919, 1:2,000); anti-PHF20 (3934S, 1:1,000) antibody from Cell Signaling; anti-ERα (Sc-503, 1:1,000) and anti-GST (Sc-459, 1:1,000) antibodies from Santa Cruz; anti-FLAG (F-1804, 1:5,000) and anti-tubulin (T8328, 1:5,000) antibodies from Sigma; anti-H4K16ac (07–329, 1:1,000) antibody from Millipore; anti-total H3 (ab1791, 1:5,000) and anti-H3K9me2 (ab1220, 1:1,000) antibodies from Abcam; and streptavidin horseradish peroxidase from Thermo Scientific. 17β-estradiol and the G9a inhibitor BIX-01294 were purchased from Sigma.
as §1, with “For the NMR titration assays, PHF20 Tudor was expressed in the ^15NH4Cl-supplemented (Sigma) minimal media, and the GST tag was cleaved with PreScission protease, and the cleaved protein was concentrated using Millipore concentrators (Millipore).” left out
Recombinant G9a (2 μg) was incubated with recombinant ERα fragments proteins (2 μg) in methylation assay buffer (50 mM Tris-HCl, pH 8.0, 10% glycerol, 20 mM KCl, 5 mM MgCl2, 1 mM DTT, 1 mM PMSF and 0.1 mM unlabelled or ^3H-labelled S-adenosylmethionine (GE Healthcare)) at 30 °C for 4 h. Reactions were stopped by adding SDS–PAGE sample buffer, and the methylation status was determined by autoradiography or western blotting analysis. […]

peptide containing K303: ERα peptide spanning amino acids 294–313, G9a substrate (SPLMIKRSKKNSLALSLTAD; UniProt P03372 294-313, looked up, fragment)
increase in mass on G9a methylation (G9a [1]): 14 Da

unmethylated ERα (aa 228–239) peptide: unmodified ERα peptide (aa 228–239) (TIDKNRRKSCQA)
chemical shift changes of PHF20 Tudor (PHF20 Tudor): no resonance perturbations were observed

ERα peptide containing K235: ERα peptide spanning amino acids 227–244, G9a substrate (CTIDKNRRKSCQACRLRK; UniProt P03372 227-244, looked up, fragment)
increase in mass on G9a methylation (G9a [1]): 28 Da

hinge region: recombinant ERα hinge fragment (aa 251–310) (MKGGIRKDRRGGRMLKHKRQRDDGEGRGEVGSAGDMRAANLWPSPLMIKRSKKNSLALSL; UniProt P03372 251-310, looked up, fragment)
methylation by G9a (G9a [2]): methylated both the DBD and the hinge region

B1: AF-1: recombinant ERα N-terminal activation function domain (aa 1–190) (protein, UniProt P03372 1-190, looked up, fragment)
chain: MTMTLHTKASGMALLHQIQGNELEPLNRPQLKIPLERPLGEVYLDSSKPAVYNYPEGAAYEFNAAAAANAQVYGQTGLPYGPGSEAAAFGSNGLGGFPPLNSVSPSPLMLLHPPPQLSPFLQPHGQQVPYYLENEPSGYTVREAGPPAFYRPNSDNRRQGGRERLASTNDKGSMAMESAKETRYCAVCND
methylation by G9a (G9a [2]): not the AF-1 and LBD fragments

B2: DBD: recombinant ERα DNA-binding domain (aa 175–250) (protein, UniProt P03372 175-250, looked up, fragment)
chain: AMESAKETRYCAVCNDYASGYHYGVWSCEGCKAFFKRSIQGHNDYMCPATNQCTIDKNRRKSCQACRLRKCYEVGM
methylation by G9a (G9a [2]): methylated both the DBD and the hinge region

B3: DBD and hinge fragment: recombinant ERα fragment DBD+hinge (aa 175–310) (protein, UniProt P03372 175-310, looked up, fragment)
chain: AMESAKETRYCAVCNDYASGYHYGVWSCEGCKAFFKRSIQGHNDYMCPATNQCTIDKNRRKSCQACRLRKCYEVGMMKGGIRKDRRGGRMLKHKRQRDDGEGRGEVGSAGDMRAANLWPSPLMIKRSKKNSLALSL
methylation by G9a (G9a [2]): specifically methylated
